Experiments:
[1] = target: Sodium channel protein type 10 subunit alpha (Homo sapiens, UniProt Q9Y5Y9); test: Inhibition of human Nav1.8 by VIPR assay
[2] = tested on: Plasma; test: Plasma concentration in dog at 1 mg/kg, iv; assay type: ADME, organism-based, Canis lupus familiaris; parameters: dose 1 mg/kg, route intravenous; details: in vivo
[3] = tested on: Mus musculus; test: Neurotoxicity in conscious mouse assessed as effect on motor activity at 100 mg/kg after 24 hrs; assay type: toxicity, organism-based; parameters: dose 100 mg/kg; details: in vivo
[4] = tested on: Mus musculus; test: Neurotoxicity in conscious mouse assessed as effect on motor activity at 100 mg/kg after 5 hrs; assay type: toxicity, organism-based; parameters: dose 100 mg/kg; details: in vivo
[5] = Cmax in dog at 20 mg/kg, po; assay type: ADME, organism-based, Canis lupus familiaris; parameters: dose 20 mg/kg, route oral; details: in vivo
[6] = tested on: Canis familiaris; test: Cardiotoxicity in anesthetized dog assessed as effect on QRS interval at 3 mg/kg, iv; assay type: toxicity, organism-based, Canis lupus familiaris; parameters: dose 3 mg/kg, route intravenous; details: in vivo
[7] = tested on: Mus musculus; test: Neurotoxicity in conscious mouse assessed as effect on body temperature at 100 mg/kg after 24 hrs; assay type: toxicity, organism-based; parameters: dose 100 mg/kg; details: in vivo
[8] = Metabolic stability in human liver microsomes assessed as compound remaining after 60 mins in presence of 10 uM substrate; assay type: ADME, Microsome; details: read-out: Stability
[9] = Bioavailability in rat at 1 mg/kg, iv and 3 mg/kg, po; assay type: ADME, organism-based; details: in vivo
[10] = tested on: Canis familiaris; test: Cardiotoxicity in anesthetized dog assessed as effect on QTc interval at 10 mg/kg, iv; assay type: toxicity, organism-based, Canis lupus familiaris; parameters: dose 10 mg/kg, route intravenous; details: in vivo
[11] = tested on: Mus musculus; test: Neurotoxicity in conscious mouse assessed as effect on behavior at 100 mg/kg after 2 hrs; assay type: toxicity, organism-based; parameters: dose 100 mg/kg; details: in vivo
[12] = tested on: Rattus norvegicus; test: Neurotoxicity in rat assessed as delay in motor coordination at 100 mg/kg, po by rotarod test (reference value: 18%); assay type: toxicity, organism-based; parameters: dose 100 mg/kg, route oral; details: in vivo
[13] = tested on: Rattus norvegicus; test: Antiallodynic activity in rat […] model assessed as reversal of complete Freund's adjuvant-induced allodynia at 30 mg/kg, po after 2 hrs; assay type: functional
[14] = tested on: Rattus norvegicus; test: Antiallodynic activity in rat […] model assessed as reversal of complete Freund's adjuvant-induced allodynia at 30 mg/kg, po after 4 hrs; assay type: functional
[15] = AUC in rat at 3 mg/kg, po; assay type: ADME, organism-based; parameters: dose 3 mg/kg, route oral; details: plasma
[16] = tested on: Canis familiaris; test: Cardiotoxicity in anesthetized dog assessed as effect on mean arterial pressure at 10 mg/kg, iv; assay type: toxicity, organism-based, Canis lupus familiaris, Artery; parameters: dose 10 mg/kg, route intravenous; details: in vivo
[17] = Metabolic stability in rat liver microsomes assessed as compound remaining after 60 mins in presence of 10 uM substrate; assay type: ADME, Microsome; details: read-out: Stability
[18] = tested on: Rattus norvegicus; test: Antiallodynic activity in rat spinal nerve ligation model of neuropathic pain assessed as reversal of allodynia at 3 mg/kg, po after 4 hrs; assay type: functional

Chain of Sodium channel protein type 10 subunit alpha (Q9Y5Y9 whole entry): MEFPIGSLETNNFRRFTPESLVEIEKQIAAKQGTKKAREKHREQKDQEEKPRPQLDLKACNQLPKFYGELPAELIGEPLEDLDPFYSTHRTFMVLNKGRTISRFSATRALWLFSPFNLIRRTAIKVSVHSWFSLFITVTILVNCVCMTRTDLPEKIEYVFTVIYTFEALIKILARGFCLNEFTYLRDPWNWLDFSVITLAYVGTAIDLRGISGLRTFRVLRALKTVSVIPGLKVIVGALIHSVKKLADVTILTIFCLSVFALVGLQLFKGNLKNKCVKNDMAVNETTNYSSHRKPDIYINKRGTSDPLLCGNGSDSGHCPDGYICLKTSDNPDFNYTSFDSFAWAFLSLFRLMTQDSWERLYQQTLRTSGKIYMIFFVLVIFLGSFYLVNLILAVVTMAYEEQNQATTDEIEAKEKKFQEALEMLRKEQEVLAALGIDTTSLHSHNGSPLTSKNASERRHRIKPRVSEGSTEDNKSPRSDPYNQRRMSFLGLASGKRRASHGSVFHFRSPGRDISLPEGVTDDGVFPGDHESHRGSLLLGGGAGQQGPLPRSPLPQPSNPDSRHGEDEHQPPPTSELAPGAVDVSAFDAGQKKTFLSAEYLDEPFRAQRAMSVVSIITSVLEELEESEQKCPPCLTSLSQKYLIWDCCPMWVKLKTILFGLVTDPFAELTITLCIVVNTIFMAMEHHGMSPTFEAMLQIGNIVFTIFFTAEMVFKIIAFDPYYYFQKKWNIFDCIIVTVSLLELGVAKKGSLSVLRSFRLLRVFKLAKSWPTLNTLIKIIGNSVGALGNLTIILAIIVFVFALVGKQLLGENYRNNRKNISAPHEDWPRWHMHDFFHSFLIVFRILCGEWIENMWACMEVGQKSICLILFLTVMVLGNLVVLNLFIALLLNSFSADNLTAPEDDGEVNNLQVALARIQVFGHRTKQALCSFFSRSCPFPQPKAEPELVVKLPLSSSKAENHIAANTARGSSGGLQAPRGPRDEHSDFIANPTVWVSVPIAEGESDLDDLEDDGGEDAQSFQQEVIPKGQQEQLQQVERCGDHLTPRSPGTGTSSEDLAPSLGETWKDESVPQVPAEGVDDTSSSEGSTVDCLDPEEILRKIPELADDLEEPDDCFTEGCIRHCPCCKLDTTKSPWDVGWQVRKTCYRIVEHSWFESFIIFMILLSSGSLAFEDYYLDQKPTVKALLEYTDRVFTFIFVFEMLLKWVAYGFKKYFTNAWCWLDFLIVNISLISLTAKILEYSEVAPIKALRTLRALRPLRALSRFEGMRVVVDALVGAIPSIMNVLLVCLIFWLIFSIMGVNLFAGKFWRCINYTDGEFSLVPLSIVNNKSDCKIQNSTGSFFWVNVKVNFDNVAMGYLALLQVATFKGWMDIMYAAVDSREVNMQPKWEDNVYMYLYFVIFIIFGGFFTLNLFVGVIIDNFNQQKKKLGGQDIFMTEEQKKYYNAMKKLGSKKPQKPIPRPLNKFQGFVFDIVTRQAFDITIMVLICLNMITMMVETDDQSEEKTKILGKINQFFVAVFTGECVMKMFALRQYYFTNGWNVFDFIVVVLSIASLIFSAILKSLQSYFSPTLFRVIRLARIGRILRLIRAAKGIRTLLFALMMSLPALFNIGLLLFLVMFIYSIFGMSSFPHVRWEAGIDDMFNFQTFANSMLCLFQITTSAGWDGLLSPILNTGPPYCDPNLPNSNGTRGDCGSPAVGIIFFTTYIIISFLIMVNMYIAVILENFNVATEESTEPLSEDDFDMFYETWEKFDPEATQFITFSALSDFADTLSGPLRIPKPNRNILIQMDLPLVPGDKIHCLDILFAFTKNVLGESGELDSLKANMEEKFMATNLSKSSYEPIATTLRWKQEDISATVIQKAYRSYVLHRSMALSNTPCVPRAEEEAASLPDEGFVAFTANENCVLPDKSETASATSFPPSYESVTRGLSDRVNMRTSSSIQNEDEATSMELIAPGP

IC50 [1]: 2000 nM
concentration [2]: 7.3 µM
Cmax [5]: 20.3 µM
remaining at 1 h, 10 uM [8]: > 99%
bioavailability [9]: 60%
AUC [15]: 5.6 µM·h
remaining at 1 h, 10 uM [17]: > 99%
SMILES: NC(=O)c1cc(C(N)=O)n(-c2cccc(-c3cc(C(F)(F)F)ccc3C(F)(F)F)c2)n1
Activity [3]: Non-toxic
Activity [4]: Non-toxic
Activity [6]: Non-toxic
Activity [7]: Non-toxic
Activity [10]: Non-toxic
Activity [11]: Non-toxic
Activity [12]: -11%
inhibition in vivo at 30 mg/kg [13]: 46%
inhibition in vivo at 30 mg/kg [14]: 53%
Activity [16]: Non-toxic
inhibition in vivo at 3 mg/kg [18]: 30%

Source: ChEMBL document CHEMBL1629455, “Discovery of a novel class of biphenyl pyrazole sodium channel blockers for treatment of neuropathic pain” (Bioorg Med Chem Lett, 2010)
